Consider two compounds from patent US20200316067A1, “COMBINATION OF RAF INHIBITORS AND TAXANES” (DOT Therapeutics-1, Inc., priority 2014, published 2020).

The structures appear in SMILES notation.

Series [1] concerns tumor cells with N-Ras mutation and K-Ras mutation, B-Raf wild type genetic background. Description: Activity against tumor cells with MAPK pathway activation by upstream signaling. The format is cell-based.
For series [2], the system named is N-Ras mutated SK-MEL-2 human melanoma xenograft. The series can be described thus: In vivo tumor efficacy, N-Ras mutated SK-MEL-2 human melanoma xenograft model. Further details: species or system Mouse (Mus musculus) Athymic NCr-nu/nu. The settings on record: Day 20.
Series [3] has as its system Calu-6 lung cancer model (KRAS Q61K). Description: In vivo tumor efficacy, KRAS mutated Calu-6 human lung carcinoma model. Further details: species or system Mouse (Mus musculus) Athymic Balb/c Nude. Conditions: for TGI: Day 21.
Series [4] is described as follows: Body weight loss in the Calu-6 xenograft study. The format is in vivo, Mouse (Mus musculus) Athymic Balb/c Nude. How it is done:
Each animal was inoculated with 2×10^6 Calu-6 tumor cells (in 0.1 mL, 1:1 with Matrigel) at the right flank for tumor model development. Body weight and the tumor growth were monitored twice weekly. Tumor size was measured to the nearest 0.1 mm using vernier caliper and applying the formula V=W^2×L/2, where V=volume, W=width, and L=length for the tumor xenograft. Xenografts were allowed to grow until they reached an average size of approximately 220 mm^3 after 14 days.
Tumor size and body weight were measured twice weekly beginning on the day of animal grouping. The study was terminated on Day 35 post treatment initiation.

A short description of series [5]: Body weight loss in the SK-MEL-2 xenograft study. Type of series: in vivo, Mouse (Mus musculus) Athymic NCr-nu/nu. As to the method:
Tumor size and body weight were measured BIW beginning on the first day of treatment. Animals were terminated when their tumor reached approximately 2000 mm^3, and the study was terminated on Day 62 post treatment initiation.

Series [6] deals with melanoma tumor cells which developed resistance to vemurafenib. Description: Activity against vemurafenib-resistant melanoma tumor cells. Type of series: cell-based.
Setting [7] is: Compound A 12.5 mg/kg PO QD Days 1-21.

Regarding `C[C@@H](NC(=O)c1ncnc(N)c1Cl)c1ncc(C(=O)Nc2cc(C(F)(F)F)c(Cl)cn2)s1` [Compound A, (R)-2-(1-(6-amino-5-chloropyrimidine-4-carboxamide)ethyl)-N-(5-chloro-4-(trifluoromethyl)pyridin-2-yl)thiazole-5-carboxamide], the “activity against tumor cells” value in series [1] and in series [6] was “active” throughout. Further, the figures for the TGI in series [2] (Compound A 50 mg/kg PO BIW), in series [3] (setting [7]) and in series [3] (Compound A 50 mg/kg PO BIW) were 62.9%, 58.9% and 59.4%, respectively. Moreover, the ΔAUC in series [3] (setting [7]) was determined as 55.4; in series [3] (Compound A 50 mg/kg PO BIW) it was 62.7. The “Mean Maximum % BWL” value in series [4] (Compound A 12.5 mg/kg PO QD, Day 0 to Day 21) was 0%; in series [4] (Compound A 50 mg/kg PO BIW, Day 7) it was −0.1% (Day 7). Also, the “Mean Maximum BWL” value is reported as 1% (Days 3 in series [5] (Compound A 12.5 mg/kg PO QD Days 0-20, Days 3 and 10); 4% (Day 17) in series [5] (Compound A 50 mg/kg PO BIW, Day 17).
As to `CC(=O)O[C@@]12CO[C@@H]1C[C@H](O)[C@@]1(C)C(=O)[C@H](O)C3=C(C)[C@@H](OC(=O)[C@H](O)[C@@H](NC(=O)OC(C)(C)C)c4ccccc4)C[C@@](O)([C@@H](OC(=O)c4ccccc4)[C@H]21)C3(C)C` [docetaxel, reference compound], the tumour growth inhibition (TGI) worked out at 74.9% in series [2] (docetaxel 7.5 mg/kg IV QW), 5.2% in series [3] (docetaxel 5 mg/kg IV QW) and 17.7% in series [3] (docetaxel 7.5 mg/kg IV QW). In addition, the ΔAUC in series [3] (docetaxel 5 mg/kg IV QW) came to 9.0; in series [3] (docetaxel 7.5 mg/kg IV QW), 18.4. Besides, the “Mean Maximum % BWL” value in series [4] (docetaxel 5 mg/kg IV QW, Day 0 to Day 21) is 0%; in series [4] (docetaxel 7.5 mg/kg IV QW, Day 21), 2.5% (Day 21). Also, the “Mean Maximum BWL” value in series [5] (docetaxel 7.5 mg/kg IV QW, Day 14) is 15% (Day 14).
